How the values were obtained:
[1] = α-syn inclusion formation in dox-inducible neuroblastoma cells; assay type: cell-based; conditions: human, m17d neuroblastoma cells; read-out: concentration from which a small level of toxicity is seen (cell confluence)
Experimental: (§1) The dox-inducible neuroblastoma cell line M17D-TR/αS3K::YFP was used to evaluate the effect of compounds in preventing the formation of inclusion following induction with Dox. Dox-inducible neuroblastoma cells M17D-TR/αS-3K::YFP have been used previously. 96-well plates were used with cellular density of 30,000 cells per well. Compounds were added after 24 h and aS-3K::YFP transgene expression was induced […]. Induction was done by adding 1 μg per mL (final concentration) dox to culture media. Cells were incubated in the Incucyte Zoom 2000 platform (Essen Biosciences) and images (green, bright field) were taken continuously. Endpoint analysis of inclusion formation or growth was performed 48 h after induction (96 h after plating). The Incucyte processing definition ‘Inclusions’ was created as follows: Parameters, Fixed Threshold, Threshold (GCU) 50; Edge Split On, Edge Sensitivity 100; Cleanup, Hole Fill (μm^2): 10, Adjust Size (pixels): 0; Filters, Area (μm^2): max 50, Mean Intensity: min 60, Integrated Intensity: min 2000. […] As described previously for the evaluation of protein expression by SDS-PAGE and Western Blotting in the LiCor system, αS-specific monoclonal antibody 4B12 (Thermofisher, Waltham, MA; 1:1000) and a polyclonal antibody to GAPDH (Sigma-Aldrich, St. Louis, MO, G9545; 1:5000) were used.

[2] = test system: M17D-TR/αS3K::YFP neuroblastoma cells; test: as above; assay type: cell-based
Experimental: as §1

p-tau isoform 1N4R = biological target: T1, p-tau isoform 1N4R (Homo sapiens, UniProt P10636); assay type: biochemical; conditions: protein 60 μM, compound 600 μM (1:10), 24 hours at 37° C.
T1 construct: made in house
Experimental: To confirm the general anti-fibrillar effect of compound 10, transmission electron microscopy (TEM) was used as an orthogonal assay. After incubating recombinant proteins (at 60 μM) with 600 μM compound 10 for 24 hours at 37° C., TEM was utilized to detect fibril formation.^32 A volume of 10 μL was applied on a 400-mesh Formvar-carbon-coated copper grid (Electron Microscopy Sciences, Hatfield, PA). The grids were incubated for 1 minute and washed three times with distilled water. They were carefully air-dried and incubated for 1 minute in a fresh solution of 1% uranyl acetate. Samples were air-dried and observed using a transmission microscope. Visualization of the grids was performed with transmission electron microscopy (JEOL 1400 Flash, Japan). Acquisition of pictures was performed with the following settings: accelerating voltage of 100 kV and magnification of 40k.

α-syn = biological target: T2, α-syn (Homo sapiens, UniProt P37840); test: PICUP cross-linking assay of α-syn oligomer formation; assay type: biochemical
T2 construct: purchased rPeptide
Experimental: PICUP is a technique in which oligomer formation is induced by cross-linking. To induce oligomerization by cross-linking, α-syn (from Rpeptide, LLC) and tau isoform 2N4R were diluted in 10 mM phosphate buffer (pH 7.4) to reach a final concentration of 10 μM. Different compounds were added to the protein solution at a final concentration of 50 μM, resulting in a molar ratio of 1:5. To confirm the gradual effect of compounds on the inhibition of α-syn oligomerization, compounds were tested at final concentration of 3.125, 6.25, 12.5, 25, and 50 μM. The controls consisted of samples without light exposition, without Ru(bpy) or ammonium persulfate, and without compound (i.e., 0.125% DMSO). The cross-linking reaction was initiated by the addition of 2 μL of Ru(bpy) (300 μM final concentration) and 2 μL ammonium persulfate (6 mM final concentration).^32 Samples were irradiated immediately. Light exposure was of a 1 second duration for α-syn and a 3 second duration for tau isoform 2N4R, with a 53 W (120 V) incandescent lamp installed in a homemade dark-box. Each tube contained a final volume of 20 μL. After irradiation, 8.3 μL of Laemmli loading buffer containing 15% 0-mercaptoethanol was immediately added to the solution, followed by incubation at 95° C. for 10 min. The cross-linked samples were separated on a 16% SDS-PAGE gel and visualized by Coomassie blue staining.

T1 sequence (P10636 1-412 isoform P10636-7): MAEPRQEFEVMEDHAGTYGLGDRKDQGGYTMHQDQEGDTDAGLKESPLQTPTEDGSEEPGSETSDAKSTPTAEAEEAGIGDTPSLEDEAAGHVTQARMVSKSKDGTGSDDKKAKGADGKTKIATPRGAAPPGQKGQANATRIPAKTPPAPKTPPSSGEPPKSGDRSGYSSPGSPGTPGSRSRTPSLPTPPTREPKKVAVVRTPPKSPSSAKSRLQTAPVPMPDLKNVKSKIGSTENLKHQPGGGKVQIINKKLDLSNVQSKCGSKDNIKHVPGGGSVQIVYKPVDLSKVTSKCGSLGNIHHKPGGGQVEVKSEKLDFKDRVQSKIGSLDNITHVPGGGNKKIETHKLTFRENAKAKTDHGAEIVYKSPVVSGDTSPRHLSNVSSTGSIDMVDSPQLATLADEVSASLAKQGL

## c1cc(Nc2ncnc(Nc3cccc4[nH]ccc34)n2)c2cc[nH]c2c1 [Compound 10, N2,N4-bis(1H-indol-4-yl)-1,3,5-triazine-2,4-diamine]
[1]
  MCC: ≥ 10 µM
[2]; Neuroblastoma cell, read-out: concentration from which α-syn inclusion body formation is reduced
  minimal effective concentration: ≥ 2.5 µM
[2]; compound 10 μM
  α-syn expression levels (Western blot): reduced
[2]; compound 40 μM
  toxicity (cell confluence, in words): more intense toxicity
[2]; compound 7: 2.5 to 20 μM, compound 10: 2.5 to 40 μM, readout 96 h after plating, vs 0.1% DMSO
  α-syn inclusion formation (punctate YFP signal, in words): reduced α-syn inclusion formation
p-tau isoform 1N4R
  p-tau isoform 1N4R fibril ultrastructure (TEM): less fibrils resulted from this treatment
α-syn; compound 50 μM, high molecular weight oligomers around 50 kDa
  α-syn oligomer formation (PICUP, in words): inhibited both α-syn and tau oligomer formation
α-syn; compound 3.125 to 50 μM
  α-syn oligomerization at different concentrations (PICUP): effective in reducing oligomerization of α-syn and tau isoform 2N4R in a dose-dependent manner
